Data set [1] can be described thus: Fraction unbound in Wistar Han rat skeletal muscle at 2 uM incubated for 6 hrs by equilibrium dialysis method.
The nature of data set [2]: Drug concentration in total white adipose tissue in Wistar Han rat at 1 to 2 mg/kg, iv infused for 10 to 20 hrs by LC-MS/MS analysis. As to conditions: in vivo.
A short description of data set [3]: Fraction unbound in Wistar Han rat heart at 2 uM incubated for 6 hrs by equilibrium dialysis method. In general terms: In equilibrium dialysis free small molecules cross a membrane that holds back macromolecules.
A short description of data set [4]: Unbound tissue partition coefficient, ratio of drug level in brain to plasma in Wistar Han rat at 1 to 2 mg/kg, iv infused for 10 to 20 hrs by LC-MS/MS analysis. As to conditions: brain/plasma.
A short description of data set [5]: Drug concentration in total heart in Wistar Han rat at 1 to 2 mg/kg, iv infused for 10 to 20 hrs by LC-MS/MS analysis. As to conditions: in vivo.
Data set [6] can be described thus: Fraction unbound in Wistar Han rat liver at 2 uM incubated for 6 hrs by equilibrium dialysis method.
Data set [7] is described as follows: Total plasma concentration in Wistar Han rat at 1 to 2 mg/kg, iv infused for 10 to 20 hrs by LC-MS/MS analysis. The conditions noted are these: in vivo.
A short description of data set [8]: Fraction unbound in Wistar Han rat plasma at 2 uM incubated for 6 hrs by equilibrium dialysis method.
The nature of data set [9]: Fraction unbound in Wistar Han rat white adipose tissue at 2 uM incubated for 6 hrs by equilibrium dialysis method.
The nature of data set [10]: Drug concentration in total skeletal muscle in Wistar Han rat at 1 to 2 mg/kg, iv infused for 10 to 20 hrs by LC-MS/MS analysis. As to conditions: in vivo.
A short description of data set [11]: Unbound tissue partition coefficient, ratio of drug level in heart to plasma in Wistar Han rat at 1 to 2 mg/kg, iv infused for 10 to 20 hrs by LC-MS/MS analysis. As to conditions: heart/plasma.
Data set [12] is described as follows: Fraction unbound in Wistar Han rat brain at 2 uM incubated for 6 hrs by equilibrium dialysis method.
Data set [13] in a line: Unbound tissue partition coefficient, ratio of drug level in liver to plasma in Wistar Han rat at 1 to 2 mg/kg, iv infused for 10 to 20 hrs by LC-MS/MS analysis. As to conditions: liver/plasma.
The nature of data set [14]: Unbound tissue partition coefficient, ratio of drug level in skeletal muscle to plasma in Wistar Han rat at 1 to 2 mg/kg, iv infused for 10 to 20 hrs by LC-MS/MS analysis. As to conditions: skeletal muscle/plasma.
Data set [15] can be described thus: Drug concentration in total brain in Wistar Han rat at 1 to 2 mg/kg, iv infused for 10 to 20 hrs by LC-MS/MS analysis. The conditions noted are these: in vivo.
Data set [16] can be described thus: Apparent permeability of the compound across dog RRCK cells by MDCK-LE assay.
Data set [17] is described as follows: Drug concentration in total liver in Wistar Han rat at 1 to 2 mg/kg, iv infused for 10 to 20 hrs by LC-MS/MS analysis. The conditions noted are these: in vivo.
Data set [18] is described as follows: Unbound tissue partition coefficient, ratio of drug level in adipose to plasma in Wistar Han rat at 1 to 2 mg/kg, iv infused for 10 to 20 hrs by LC-MS/MS analysis. As to conditions: adipose/plasma.

By fraction unbound is commonly meant the share of the substance not bound to proteins or other matrix. A lower fraction unbound goes with extensive binding. By Papp is commonly meant the rate of passage across a membrane or cell layer, normalised by area and donor concentration.

The structures appear in SMILES notation.

`CC(C)(CC1Cc2ccccc2C1)NC[C@@H](O)COc1cc(C2CC3CC2C2C(C(=O)O)C32)ccc1C#N` (some centres undefined): the free fraction (fraction unbound) at 6 h, 2 µM in data set [1] is 0.00211; in data set [3], 0.00108; in data set [6] it was 0.00258; in data set [8], 0.0104; in [9], 0.0322; in data set [12], 0.00176. Moreover, the Ct in data set [2] came to 4.7 ng/mL; in [5], 86 ng/mL; in [10] it was 16 ng/mL; in [15], 1 ng/mL; in [17], 400 ng/mL. In addition, the Kp uu in [4] came out at 0.0025; in data set [11], 0.19; in data set [13] it was 2.2; in [14], 0.08; in data set [18], 0.36. In addition, the Cp in [7] is 54 ng/mL. Also, the apparent permeability (Papp) in data set [16] was found to be 5.3 ×10⁻⁶ cm/s.
In the case of `CC1(C)CN(CCC#N)C(=O)[C@@H]1Oc1ccc(C#N)c(C(F)(F)F)c1`, the free fraction (fraction unbound) at 6 h, 2 µM in data set [1] is 0.263; in [3] it was 0.152; in [6] it was 0.122; in data set [8] it was 0.358; in data set [9], 0.185; in data set [12], 0.0717. The Ct was determined as 250 ng/mL in [2]; 210 ng/mL in [5]; 110 ng/mL in data set [10]; 91 ng/mL in [15]; 500 ng/mL in [17]. Also, the Kp uu in data set [4] came out at 0.11; in [11], 0.55; in [13] it was 1; in data set [14], 0.48; in data set [18], 0.81. This molecule also registered a Cp in [7] of 160 ng/mL. Besides, the Papp in data set [16] was 40 ×10⁻⁶ cm/s.
Regarding `CCCC(Oc1ccc(-n2cc3ccccc3n2)cc1)c1ccc(C(=O)NCCC(=O)O)cc1` (centres undefined), the fraction unbound at 6 h, 2 µM in data set [1] was 0.00584; in data set [3] it was 0.00543; in [6] it was 0.00607; in [8], 0.0034; in data set [9], 0.105; in [12] it was 0.00341. For the same molecule, the Ct was 0.77 ng/mL in data set [2]; 80 ng/mL in data set [5]; 12 ng/mL in data set [10]; 1.9 ng/mL in data set [15]; 420 ng/mL in data set [17]. Further, the Kp uu is 0.018 in [4]; 1.8 in data set [11]; 14 in [13]; 0.38 in data set [14]; 0.024 in data set [18]. Further, the Cp in [7] worked out at 68 ng/mL. Moreover, in data set [16], the apparent permeability coefficient (Papp) amounted to 9.9 ×10⁻⁶ cm/s.
Regarding `C[C@H]1c2cccc(CCC(C)(C)O)c2C[C@H](CO)N1C(=O)Cc1c(Cl)cccc1Cl`, the fraction unbound at 6 h, 2 µM in data set [1] turned out to be 0.0161; in data set [3] it was 0.016; in data set [6] it was 0.0158; in data set [8] it was 0.012; in data set [9], 0.0547; in data set [12], 0.0113. In addition, the Ct came out at 110 ng/mL in data set [2]; 190 ng/mL in [5]; 95 ng/mL in data set [10]; 39 ng/mL in [15]; 690 ng/mL in data set [17]. The Kp uu in data set [4] came out at 0.35; in [11], 2.3; in [13], 9.8; in [14], 1.3; in data set [18], 4.9. This molecule had a Cp in data set [7] of 150 ng/mL. The Papp in [16] was 27 ×10⁻⁶ cm/s.
With `O=C(O)c1c[nH]c2cc(Cl)c(-c3ccc(CC(=O)N4CCOCC4)cc3)cc12`, the unbound share (fraction unbound) at 6 h, 2 µM in data set [1] was found to be 0.133; in data set [3], 0.0746; in data set [6], 0.0789; in [8], 0.00645; in data set [9] it was 0.386; in [12], 0.181. The Ct in data set [2] was determined as 2 ng/mL; in data set [5], 21 ng/mL; in data set [10], 0.89 ng/mL; in [15], 0.38 ng/mL; in data set [17], 210 ng/mL. Further, the Kp uu in data set [4] is 0.0018; in data set [11], 3.4; in data set [13] it was 40; in data set [14] it was 0.16; in [18] it was 1.6. Also, the Cp in [7] was determined as 72 ng/mL. The apparent permeability (Papp) in [16] is 2.4 ×10⁻⁶ cm/s.
`C[C@H]1C[C@H]2CSC(N)=N[C@@]2(c2cc(C#N)ccc2F)CO1`: the fraction unbound at 6 h, 2 µM in data set [1] amounted to 0.344; in data set [3], 0.668; in data set [6] it was 0.548; in data set [8], 0.796; in [9] it was 1; in [12] it was 0.573. Moreover, the Ct in data set [2] was found to be 86 ng/mL; in [5] it was 380 ng/mL; in [10] it was 240 ng/mL; in [15] it was 230 ng/mL; in [17] it was 990 ng/mL. Moreover, the Kp uu in data set [4] came to 2.1; in data set [11], 3.9; in [13], 8.5; in data set [14], 1.3; in data set [18] it was 1.4. Moreover, in data set [7], the Cp was 84 ng/mL. The apparent permeability coefficient (Papp) in data set [16] is 29 ×10⁻⁶ cm/s.
Turning to `N#Cc1ccc(N2N=C(N3CCC(C(=O)N4CCC(O)CC4)CC3)C[C@H]2C2CCCC2)cc1Cl`, the unbound share (fraction unbound) at 6 h, 2 µM in data set [1] came out at 0.00952; in data set [3] it was 0.00283; in data set [6], 0.00991; in data set [8], 0.00962; in data set [9] it was 0.109; in data set [12], 0.00431. Besides, the Ct was 120 ng/mL in data set [2]; 550 ng/mL in data set [5]; 150 ng/mL in data set [10]; 16 ng/mL in data set [15]; 1000 ng/mL in data set [17]. Besides, the Kp uu in data set [4] turned out to be 0.029; in data set [11] it was 0.68; in data set [13], 4.3; in data set [14], 0.59; in [18], 5.9. Moreover, the Cp in data set [7] stood at 240 ng/mL. In data set [16], the apparent permeability coefficient (Papp) was determined as 20 ×10⁻⁶ cm/s.
As to `COc1cc2c(cc1Cc1ccccc1)C[C@H](N)C(=O)N2OC(=O)N(C)C`, the fraction unbound at 6 h, 2 µM was determined as 0.0886 in [1]; 0.209 in [3]; 0.147 in data set [6]; 0.354 in data set [8]; 0.214 in data set [9]; 0.0385 in data set [12]. Besides, the Ct was found to be 33 ng/mL in data set [2]; 76 ng/mL in [5]; 32 ng/mL in data set [10]; 16 ng/mL in data set [15]; 33 ng/mL in [17]. For the same molecule, the Kp uu in data set [4] was 0.1; in data set [11], 2.5; in [13], 0.74; in data set [14], 0.46; in [18], 1.1. The molecule further gave a Cp in data set [7] of 18 ng/mL. Moreover, in data set [16], the Papp was 38 ×10⁻⁶ cm/s.

(Values after ChEMBL document CHEMBL4373746, “Structural attributes influencing unbound tissue distribution” (Eur J Med Chem, 2020).)
